Drawing on patent US20230279025A1, “KRAS G12D INHIBITORS” (Mirati Therapeutics, Inc., priority 2020, published 2023), this text covers IC50 for 21 molecules.

Structures can show the parent of a compound that is named as a salt.

The assay has as its target KRas G12D (Homo sapiens (Human), UniProt P01116, G12D). Briefly: KRas G12D Binding Assay (TR-FRET displacement of Cy5 labelled tracer). The note with it: GDP-loaded KRAS G12D (amino acids 1:169), 60 minute incubation at 22° C. The procedure:
After a 60 minute incubation at 22° C., the reaction was measured using a PerkinElmer EnVision multimode plate reader via TR-FRET dual wavelength detection, and the percent of control (POC) calculated using a ratiometric emission factor. […] The POC values were fit to a 4-parameter logistic curve and the IC50 value was determined as the concentration where the curve crosses 50 POC.
ND stands for “not determined.”

Sequence of KRas G12D (P01116 other isoform, or with tags, fused parts or gaps G12D): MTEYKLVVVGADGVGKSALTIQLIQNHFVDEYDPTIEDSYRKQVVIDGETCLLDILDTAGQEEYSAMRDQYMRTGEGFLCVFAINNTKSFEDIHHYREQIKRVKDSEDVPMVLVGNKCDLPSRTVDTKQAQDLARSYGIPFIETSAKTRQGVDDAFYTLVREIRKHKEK

As usually defined, the IC50 is the concentration at which inhibition is half-maximal. A lower IC50 goes with inhibition by little substance. Regarding `Fc1c(-c2cccc3cccc(Cl)c23)ncc2c(N3CC4CCC(C3)N4)nc(OC[C@@]34CCCN3C[C@@H](C(F)(F)F)C4)nc12` (mixture of isomers) [Example 382], the IC50 turned out to be 21.1 nM. In other words, the double-digit nanomolar range.

`Oc1cc(-c2ncc3c(N4C[C@H]5CC[C@@H](C4)N5)nc(OCC45CCCN4C(CF)CC5)nc3c2F)c2ccccc2c1` (mixture of isomers) [Example 384, 4-(4-((1R,5S)-3,8-diazabicyclo[3.2.1]octan-3-yl)-8-fluoro-2-((3-(fluoromethyl)tetrahydro-1H-pyrrolizin-7a(5H)-yl)methoxy)pyrido[4,3-d]pyrimidin-7-yl)naphthalen-2-ol] registered an IC50 of 2.4 nM.

`COC1CN2CCCC2(COc2nc(N3CC4CCC(C3)N4)c3cnc(-c4cc(O)cc5cccc(F)c45)c(F)c3n2)C1` (mixture of isomers) [Example 388, 4-(4-((1R,5S)-3,8-diazabicyclo[3.2.1]octan-3-yl)-8-fluoro-2-((2-methoxytetrahydro-1H-pyrrolizin-7a(5H)-yl)methoxy)pyrido[4,3-d]pyrimidin-7-yl)-5-fluoronaphthalen-2-ol] gave an IC50 of 0.6 nM.

For the molecule `CCc1cccc2cncc(-c3ncc4c(N5CC6CCC(C5)N6)nc(OCC56CCCN5C[C@H](F)C6)nc4c3F)c12` (mixture of isomers) [Example 324, 4-((1R,5S)-3,8-diazabicyclo[3.2.1]octan-3-yl)-7-(5-ethylisoquinolin-4-yl)-8-fluoro-2-((2-fluorotetrahydro-1H-pyrrolizin-7a(5H)-yl)methoxy)pyrido[4,3-d]pyrimidine (racemic, trans)], the IC50 worked out at 10.2 nM.

In the case of `CC1(C)CN2C[C@H](F)CC2(COc2nc(N3CC4CCC(C3)N4)c3cnc(-c4cccc5cccc(Cl)c45)c(F)c3n2)C1` (mixture of isomers) [Example 325, 4-((1R,5S)-3,8-diazabicyclo[3.2.1]octan-3-yl)-7-(8-chloronaphthalen-1-yl)-8-fluoro-2-((6-fluoro-2,2-dimethyltetrahydro-1H-pyrrolizin-7a(5H)-yl)methoxy)pyrido[4,3-d]pyrimidine (racemic, trans)], the IC50 was 141 nM.

The molecule `Oc1cc(-c2ncc3c(N4CC5CCC(C4)N5)nc(OCC45CCCN4C[C@H](F)C5)nc3c2F)c2c(Cl)cccc2c1` (mixture of isomers) [Example 330, 4-(4-((1R,5S)-3,8-diazabicyclo[3.2.1]octan-3-yl)-8-fluoro-2-((2-fluorotetrahydro-1H-pyrrolizin-7a(5H)-yl)methoxy)pyrido[4,3-d]pyrimidin-7-yl)-5-chloronaphthalen-2-ol (racemic, trans)] gave an IC50 of 2.5 nM.

Molecule `Cc1ccc2[nH]ncc2c1-c1ncc2c(N3CC4CCC(C3)N4)nc(OCC34CCCN3C[C@H](F)C4)nc2c1F` (mixture of isomers) [Example 331, 4-((1R,5S)-3,8-diazabicyclo[3.2.1]octan-3-yl)-8-fluoro-2-((2-fluorotetrahydro-1H-pyrrolizin-7a(5H)-yl)methoxy)-7-(5-methyl-1H-indazol-4-yl)pyrido[4,3-d]pyrimidine (racemic, trans)] came in with an IC50 of 114 nM.

Take `Oc1cc(-c2ncc3c(N4CC5C[C@@H](n6cncn6)C(C4)N5)nc(OC[C@@]45CCCN4C[C@H](F)C5)nc3c2F)c2ccccc2c1` (mixture of isomers) [Example 333, 4-(4-((6R)-6-(1H-1,2,4-triazol-1-yl)-3,8-diazabicyclo[3.2.1]octan-3-yl)-8-fluoro-2-((2-fluorotetrahydro-1H-pyrrolizin-7a(5H)-yl)methoxy)pyrido[4,3-d]pyrimidin-7-yl)naphthalen-2-ol (racemic, trans)]: the IC50 turned out to be 450 nM.

Regarding `Fc1ccc2cccc(-c3ncc4c(N5CC6CCC(C5)N6)nc(OC[C@@]56CCCN5C[C@H](F)C6)nc4c3F)c2c1Cl` (racemic) [Example 336, 4-((1R,5S)-3,8-diazabicyclo[3.2.1]octan-3-yl)-7-(8-chloro-7-fluoronaphthalen-1-yl)-8-fluoro-2-((2-fluorotetrahydro-1H-pyrrolizin-7a(5H)-yl)methoxy)pyrido[4,3-d]pyrimidine (racemic, trans)], the IC50 turned out to be 3.1 nM.

As for `Oc1ccc(OC(F)(F)F)c(-c2ncc3c(N4CC5CCC(C4)N5)nc(OCC45CCCN4C[C@H](F)C5)nc3c2F)c1` (mixture of isomers) [Example 340, 3-(4-((1R,5S)-3,8-diazabicyclo[3.2.1]octan-3-yl)-8-fluoro-2-((2-fluorotetrahydro-1H-pyrrolizin-7a(5H)-yl)methoxy)pyrido[4,3-d]pyrimidin-7-yl)-4-(trifluoromethoxy)phenol (racemic, trans)], the half-maximal inhibitory concentration (IC50) came out at 0.4 nM.

Molecule `Fc1c(-c2cccc(Cl)c2C2CC2)ncc2c(N3CC4CCC(C3)N4)nc(OCC34CCCN3C[C@H](F)C4)nc12` (mixture of isomers) [Example 342, 4-((1R,5S)-3,8-diazabicyclo[3.2.1]octan-3-yl)-7-(3-chloro-2-cyclopropylphenyl)-8-fluoro-2-((2-fluorotetrahydro-1H-pyrrolizin-7a(5H)-yl)methoxy)pyrido[4,3-d]pyrimidine (racemic, trans)] displayed an IC50 of 3.4 nM.

`Fc1c(-c2c(C(F)(F)F)ccc3[nH]ncc23)ncc2c(N3CC4CCC(C3)N4)nc(OCC34CCCN3C[C@H](F)C4)nc12` (mixture of isomers) [Example 343, 4-((1R,5S)-3,8-diazabicyclo[3.2.1]octan-3-yl)-8-fluoro-2-((2-fluorotetrahydro-1H-pyrrolizin-7a(5H)-yl)methoxy)-7-(5-(trifluoromethyl)-1H-indazol-4-yl)pyrido[4,3-d]pyrimidine (racemic, trans)] displayed an IC50 of 10.4 nM.

Molecule `Cc1cccc(O)c1-c1ncc2c(N3CC4CCC(C3)N4)nc(OC[C@@]34CCCN3C[C@H](F)C4)nc2c1F` (racemic) [Example 377, 2-(4-((1R,5S)-3,8-diazabicyclo[3.2.1]octan-3-yl)-8-fluoro-2-((2-fluorotetrahydro-1H-pyrrolizin-7a(5H)-yl)methoxy)pyrido[4,3-d]pyrimidin-7-yl)-3-methylphenol] came in with an IC50 of 417 nM.

Consider `Fc1c(-c2ccccc2[C@@H]2C[C@H]2F)ncc2c(N3C[C@H]4CC[C@@H](C3)N4)nc(OCC34CCCN3CCC4)nc12` (relative stereo) [Example 285, 4-((1R,5S)-3,8-diazabicyclo[3.2.1]octan-3-yl)-8-fluoro-7-(2-(trans-2-fluorocyclopropyl)phenyl)-2-((hexahydro-1H-pyrrolizin-7a-yl)methoxy)pyrido[4,3-d]pyrimidine], for which the IC50 was 279 nM.

`Cn1cc([C@H]2CN3CCC[C@]3(COc3nc(N4CC5CCC(C4)N5)c4cnc(-c5cccc6cccc(Cl)c56)c(F)c4n3)C2)cn1` (stereo in doubt) [Example 220, 4-((1R,5S)-3,8-diazabicyclo[3.2.1]octan-3-yl)-7-(8-chloronaphthalen-1-yl)-8-fluoro-2-((2-(1-methyl-1H-pyrazol-4-yl)tetrahydro-1H-pyrrolizin-7a(5H)-yl)methoxy)pyrido[4,3-d]pyrimidine tris-hydrochloride salt] showed an IC50 of 8.7 nM.

For `Fc1c(-c2cccc3cccc(Cl)c23)ncc2c(N3CC4CCC(C3)N4)nc(OC[C@]34CCCN3C[C@H](c3ccccc3)C4)nc12` (stereo in doubt) [Example 221, 4-((1R,5S)-3,8-diazabicyclo[3.2.1]octan-3-yl)-7-(8-chloronaphthalen-1-yl)-8-fluoro-2-((2-phenyltetrahydro-1H-pyrrolizin-7a(5H)-yl)methoxy)pyrido[4,3-d]pyrimidine bis-hydrochloride salt], the IC50 stood at 15.7 nM.

As to `O[C@H]1CN2CCC[C@]2(COc2nc(N3CC4CCC(C3)N4)c3cnc(-c4cccc5cccc(Cl)c45)c(F)c3n2)C1` (stereo in doubt) [Example 224, 7a-(((4-((1R,5S)-3,8-diazabicyclo[3.2.1]octan-3-yl)-7-(8-chloronaphthalen-1-yl)-8-fluoropyrido[4,3-d]pyrimidin-2-yl)oxy)methyl)hexahydro-1H-pyrrolizin-2-ol bis-hydrochloride], the IC50 was found to be 27 nM.

For the molecule `C[C@H]1CN2CCC[C@@]2(COc2nc(N3CC4CCC(C3)N4)c3cnc(-c4cccc5cccc(Cl)c45)c(F)c3n2)C1` (stereo in doubt) [Example 227, 4-((1R,5S)-3,8-diazabicyclo[3.2.1]octan-3-yl)-7-(8-chloronaphthalen-1-yl)-8-fluoro-2-((2-methyltetrahydro-1H-pyrrolizin-7a(5H)-yl)methoxy)pyrido[4,3-d]pyrimidine bis-hydrochloride], the IC50 is 6.4 nM.

In the case of `N#C[C@H]1CCN2CCC[C@@]12COc1nc(N2CC3CCC(C2)N3)c2cnc(-c3cccc4cccc(Cl)c34)c(F)c2n1` (stereo in doubt) [Example 379, 7a-(((4-((1R,5S)-3,8-diazabicyclo[3.2.1]octan-3-yl)-7-(8-chloronaphthalen-1-yl)-8-fluoropyrido[4,3-d]pyrimidin-2-yl)oxy)methyl)hexahydro-1H-pyrrolizine-1-carbonitrile], the IC50 stood at 249 nM.

On to `CCc1c(F)ccc2cccc(-c3ncc4c(N5CC6CCC(C5)N6)nc(OC[C@@]56CCCN5C[C@H](F)C6)nc4c3F)c12` (stereo in doubt) [Example 381, 4-((1R,5S)-3,8-diazabicyclo[3.2.1]octan-3-yl)-7-(8-ethyl-7-fluoronaphthalen-1-yl)-8-fluoro-2-((2-fluorotetrahydro-1H-pyrrolizin-7a(5H)-yl)methoxy)pyrido[4,3-d]pyrimidine], for which the half-maximal inhibitory concentration (IC50) worked out at 0.7 nM.

Consider `COC[C@H]1CC[C@@]2(COc3nc(N4CC5CCC(C4)N5)c4cnc(-c5cc(O)cc6ccccc56)c(F)c4n3)CCCN12` (stereo in doubt) [Example 389, 4-(4-((1R,5S)-3,8-diazabicyclo[3.2.1]octan-3-yl)-8-fluoro-2-((3-(methoxymethyl)tetrahydro-1H-pyrrolizin-7a(5H)-yl)methoxy)pyrido[4,3-d]pyrimidin-7-yl)naphthalen-2-ol], for which the IC50 came to 1.4 nM. This IC50 lies about 2-fold higher than the previous one.
